From patent US20200170975A1 (Strongbridge Dublin Limited, priority 2018, published 2020)
Read-outs that look alike come from different tables or passages of the source. Blank lines part the entries; values can stand above or below the molecule they belong to.

Experiments:
MATE2-K = MATE2-K (Homo sapiens, UniProt Q86VL8); details: [14C]-Metformin 10 μM
Experimental: (§1) [^14C]-Metformin (1 mM) was provided as a solid and was prepared in Hank's balanced salt solution (HBSS).
(§2) Cells were plated onto standard 24-well tissue culture plates in cell culture medium 1 to 3 days before the experiment. MATE1 and MATE2-K and control cells were incubated with butyric acid (10 mM) for 24 hours before the experiment to inhibit suppression of the transporter.

MATE1 = molecular target: T1, MATE1 (Homo sapiens, UniProt Q96FL8)
T1 sequence (Q96FL8 1-570): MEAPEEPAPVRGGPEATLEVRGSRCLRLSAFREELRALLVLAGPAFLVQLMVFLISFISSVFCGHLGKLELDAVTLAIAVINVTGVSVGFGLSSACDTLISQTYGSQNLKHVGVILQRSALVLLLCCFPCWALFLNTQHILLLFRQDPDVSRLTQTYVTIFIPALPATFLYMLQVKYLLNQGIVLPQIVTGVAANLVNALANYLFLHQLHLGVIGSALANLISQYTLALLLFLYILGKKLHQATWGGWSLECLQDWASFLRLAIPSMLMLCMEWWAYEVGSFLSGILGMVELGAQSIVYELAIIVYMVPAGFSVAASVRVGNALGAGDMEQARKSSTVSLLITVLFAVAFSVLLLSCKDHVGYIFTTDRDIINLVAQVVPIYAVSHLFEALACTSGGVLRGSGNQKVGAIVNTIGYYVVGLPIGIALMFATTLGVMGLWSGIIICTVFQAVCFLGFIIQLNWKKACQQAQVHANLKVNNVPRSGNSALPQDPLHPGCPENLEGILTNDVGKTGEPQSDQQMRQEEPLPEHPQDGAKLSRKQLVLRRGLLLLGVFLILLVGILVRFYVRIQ
Experimental: as §1, §2

P-gp = P-gp (Homo sapiens, UniProt P08183); experiment: P-gp inhibition: bidirectional transport of digoxin across Caco-2 cells
BCRP = molecular target: T2, BCRP (Homo sapiens, UniProt Q9UNQ0); experiment: BCRP inhibition: bidirectional transport of prazosin across MDCKII-BCRP and control MDCKII cells
T2 sequence (Q9UNQ0 1-655): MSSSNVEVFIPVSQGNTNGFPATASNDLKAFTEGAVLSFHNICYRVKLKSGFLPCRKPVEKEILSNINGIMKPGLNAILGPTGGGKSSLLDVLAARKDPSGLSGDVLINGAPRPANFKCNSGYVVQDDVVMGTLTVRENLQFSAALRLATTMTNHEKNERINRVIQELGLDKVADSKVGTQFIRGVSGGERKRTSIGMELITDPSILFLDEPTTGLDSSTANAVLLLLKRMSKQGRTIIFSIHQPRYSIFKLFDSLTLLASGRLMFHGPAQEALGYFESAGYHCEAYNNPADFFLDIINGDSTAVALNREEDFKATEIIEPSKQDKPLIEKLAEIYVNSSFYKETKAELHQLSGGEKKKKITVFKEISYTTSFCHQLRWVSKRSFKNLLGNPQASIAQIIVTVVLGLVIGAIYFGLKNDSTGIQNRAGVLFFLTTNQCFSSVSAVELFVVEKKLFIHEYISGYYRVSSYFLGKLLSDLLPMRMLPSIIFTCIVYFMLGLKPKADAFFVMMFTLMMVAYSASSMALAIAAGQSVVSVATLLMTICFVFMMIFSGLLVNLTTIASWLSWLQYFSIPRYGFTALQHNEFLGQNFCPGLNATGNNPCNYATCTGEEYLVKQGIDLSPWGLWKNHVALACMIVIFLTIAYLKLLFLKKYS
Description: MDCKII P-gp, MDCKII BCRP and control MDCKII cells were purchased from the Netherlands Cancer Institute.

Chain of MATE2-K (Q86VL8 1-566 isoform Q86VL8-3): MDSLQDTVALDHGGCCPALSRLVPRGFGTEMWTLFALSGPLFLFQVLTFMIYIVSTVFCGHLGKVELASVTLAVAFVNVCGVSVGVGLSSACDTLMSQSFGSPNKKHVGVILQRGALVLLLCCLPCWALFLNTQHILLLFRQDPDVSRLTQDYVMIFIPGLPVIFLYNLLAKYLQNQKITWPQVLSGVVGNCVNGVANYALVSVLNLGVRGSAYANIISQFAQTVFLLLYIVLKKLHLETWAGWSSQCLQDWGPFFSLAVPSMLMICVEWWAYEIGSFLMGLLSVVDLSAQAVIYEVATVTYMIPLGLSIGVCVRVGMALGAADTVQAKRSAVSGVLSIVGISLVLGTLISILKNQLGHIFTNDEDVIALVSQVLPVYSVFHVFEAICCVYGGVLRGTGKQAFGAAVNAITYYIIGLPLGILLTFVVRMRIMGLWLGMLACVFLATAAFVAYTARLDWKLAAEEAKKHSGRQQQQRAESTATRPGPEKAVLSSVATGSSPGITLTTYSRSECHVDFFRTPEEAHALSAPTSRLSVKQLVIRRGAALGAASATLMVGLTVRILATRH
Chain of P-gp (P08183 whole entry): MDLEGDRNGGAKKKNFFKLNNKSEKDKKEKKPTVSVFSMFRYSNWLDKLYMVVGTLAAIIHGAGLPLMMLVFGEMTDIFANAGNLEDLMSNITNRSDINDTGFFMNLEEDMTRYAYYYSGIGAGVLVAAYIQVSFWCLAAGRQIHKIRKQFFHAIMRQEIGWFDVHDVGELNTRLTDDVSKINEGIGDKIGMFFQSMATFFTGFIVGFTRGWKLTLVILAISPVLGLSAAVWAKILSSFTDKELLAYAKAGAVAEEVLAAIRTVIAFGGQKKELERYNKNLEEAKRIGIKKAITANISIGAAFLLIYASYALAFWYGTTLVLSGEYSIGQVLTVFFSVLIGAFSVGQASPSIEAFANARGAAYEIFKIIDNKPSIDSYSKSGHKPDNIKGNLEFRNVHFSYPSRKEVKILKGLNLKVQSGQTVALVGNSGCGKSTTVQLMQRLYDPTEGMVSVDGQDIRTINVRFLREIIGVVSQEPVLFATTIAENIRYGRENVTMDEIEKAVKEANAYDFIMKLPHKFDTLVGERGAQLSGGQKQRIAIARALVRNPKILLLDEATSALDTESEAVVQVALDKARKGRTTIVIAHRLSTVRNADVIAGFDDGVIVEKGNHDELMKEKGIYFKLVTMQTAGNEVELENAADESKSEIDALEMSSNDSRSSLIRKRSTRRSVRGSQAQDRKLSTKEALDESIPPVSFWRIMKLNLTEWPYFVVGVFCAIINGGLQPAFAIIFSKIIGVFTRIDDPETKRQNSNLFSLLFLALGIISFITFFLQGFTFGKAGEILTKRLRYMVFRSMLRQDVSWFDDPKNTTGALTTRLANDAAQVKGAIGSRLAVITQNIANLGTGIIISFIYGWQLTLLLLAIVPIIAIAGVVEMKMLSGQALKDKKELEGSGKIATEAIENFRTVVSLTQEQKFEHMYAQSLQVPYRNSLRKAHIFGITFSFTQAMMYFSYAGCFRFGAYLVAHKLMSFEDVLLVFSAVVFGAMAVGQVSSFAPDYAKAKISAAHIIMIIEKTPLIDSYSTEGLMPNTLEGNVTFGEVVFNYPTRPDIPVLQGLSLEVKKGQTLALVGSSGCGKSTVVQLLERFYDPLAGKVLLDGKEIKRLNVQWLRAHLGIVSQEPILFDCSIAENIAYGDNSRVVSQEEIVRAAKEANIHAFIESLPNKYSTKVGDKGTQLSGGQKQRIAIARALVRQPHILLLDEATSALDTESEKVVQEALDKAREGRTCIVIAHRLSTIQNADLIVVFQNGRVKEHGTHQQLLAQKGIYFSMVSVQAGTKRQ

- % control (MATE2-K; inhibitor 0.3 μM): 50.6%
- % control (MATE1; HEK293 cells, inhibitor 0.1 μm): 14.2%
SMILES: CCc1nc(N)nc(N)c1-c1ccc(Cl)cc1 [Pyrimethamine]

- Papp A:B (Average ± SD) (P-gp): 9.12 ± 1.34 ×10^−6 cm/sec
- Papp B:A (Average ± SD) (P-gp): 10.0 ± 2.5 ×10^−6 cm/sec
SMILES: C/C=C/C[C@@H](C)C(=O)[C@H]1C(=O)N[C@@H](C(C)C)C(=O)N(C)CC(=O)N(C)[C@@H](CC(C)C)C(=O)N[C@@H](C(C)C)C(=O)N(C)[C@@H](CC(C)C)C(=O)N[C@@H](C)C(=O)N[C@H](C)C(=O)N(C)[C@@H](CC(C)C)C(=O)N(C)[C@@H](CC(C)C)C(=O)N(C)[C@@H](C(C)C)C(=O)N1C [Valspodar]

- Papp Apical to basal (Average ± SD) (BCRP): 3.23e-05 cm/s
- Papp Basal to apical (Average ± SD) (BCRP): 37.6 ± 1.6 ×10^−6 cm/sec
- Papp Apical to basal (Average ± SD) (BCRP; MDCK): 13.3 ± 10.0 ×10^−6 cm/sec
- Papp Basal to apical (Average ± SD) (BCRP; MDCK): 20.9 ± 4.7 ×10^−6 cm/sec
SMILES: Cc1cccc(C)c1OCC(=O)N[C@@H](Cc1ccccc1)[C@@H](O)C[C@H](Cc1ccccc1)NC(=O)[C@H](C(C)C)N1CCCNC1=O [Lopinavir]

- Uptake, MATE2-K (Average ± SD) (MATE2-K; MATE2-K HEK293 cells, inhibitor 300 μM): 32.3 ± 11.7 pmol/mg protein
- % control (MATE2-K; inhibitor 300 μM): 18.1%
- Background corrected uptake rate (MATE2-K; inhibitor 300 μM): 4.99 pmol/mg/min
- Uptake, Control (Average ± SD) (MATE2-K; control HEK293 cells, inhibitor 300 μM): 7.34 ± 0.20 pmol/mg protein
- % control (MATE1; HEK293 cells, inhibitor 10 μm): 19.3%
- Background corrected uptake rate (MATE1; HEK293 cells, inhibitor 10 μm): 16.0 pmol/mg/min
- Uptake, MATE1 (Average ± SD) (MATE1; MATE1 HEK293 cells, inhibitor 10 μm): 85.2 ± 7.8 pmol/mg protein
- Uptake, Control (Average ± SD) (MATE1; control HEK293 cells, inhibitor 10 μm): 5.20 ± 0.63 pmol/mg protein
SMILES: CN/C(=N/CCSCc1nc[nH]c1C)NC#N [Cimetidine]
